Results: US6632621B1, “G protein-coupled receptor-like receptors and modulators thereof” (priority 1999, dated 2003)
*1 amine or outer side, *2 acyl side, *3 side chain or, on linkers, in order; H or OH if unused. Where no end group is shown, it is not given here. [ ]: non-standard residue; d: D form. Tyr(125I) = 125I-iodinated Tyr, O=C([C@H](Cc1ccc(O[*:3])c([125I])c1)N[*:1])[*:2]; Tyr(3-I) = N[C@@H](Cc1ccc(O)c(I)c1)C(=O)O

Columns and labels:
[1] = molecular target: T1, CEGPCR4 receptor (Caenorhabditis elegans, UniProt A0A078BTK0); test: [35S]GTPγS binding assay, membranes of CHO cells transfected with CEGPCR4; format: biochemical, C. elegans
T1 sequence (A0A078BTK0 1-376): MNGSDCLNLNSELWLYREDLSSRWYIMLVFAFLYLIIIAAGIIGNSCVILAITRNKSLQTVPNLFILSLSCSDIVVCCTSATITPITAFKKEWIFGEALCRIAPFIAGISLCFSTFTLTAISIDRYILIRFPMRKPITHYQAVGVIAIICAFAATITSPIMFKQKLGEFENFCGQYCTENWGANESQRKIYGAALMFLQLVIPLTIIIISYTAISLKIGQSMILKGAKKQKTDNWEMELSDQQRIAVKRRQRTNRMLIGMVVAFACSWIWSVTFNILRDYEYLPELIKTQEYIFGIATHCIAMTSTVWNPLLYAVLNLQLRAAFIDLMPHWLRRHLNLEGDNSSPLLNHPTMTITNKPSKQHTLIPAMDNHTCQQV
Method: Recombinant pCR3.1 clones encoding invertebrate GPCR-like receptors were transformed into wild-type CHO-K1 cells and functional expression was achieved using a temperature-shift incubation protocol. The CHO-K1 cells were cultured at 37° C. in a humidified atmosphere of 5% CO2 in air in DMEM medium supplemented with 10% heat-inactivated fetal bovine serum (i.e., FBS), 10 μg/ml gentamicin, and 0.1 mM nonessential amino acids to give complete DMEM medium. Additionally, for incubations at temperatures lower than 37° C., the medium was fortified with 10 mM HEPES (pH 7.4). Cells were transfected with recombinant pCR3.1 clones containing GPCR-like receptor DNAs, using LipofectAMINE PLUS™, essentially according to the manufacturer's instructions. […] In separate plastic tubes, PLUS (20 μl/plate; Life Technologies) was added to 0.75 ml/plate of recombinant plasmid DNA in OptiMEM (5 μg/plate; Gibco/BRL—Life Technologies), mixed and incubated at room temperature for 15 minutes. Separately, LipofectAMINE (30 μl/plate) was mixed with 0.75 ml OptiMEM and added to the pre-complexed DNA/PLUS mixture and incubated at room temperature for 15 minutes. […]
To assess expression, membranes were prepared from transfected CHO-K1 cells. […] Membrane protein concentration was determined using the BCA Protein Assay Reagent from Pierce (Rockford, Ill.), with bovine serum albumin (i.e., BSA) as a standard. […]

[2] = system: CEGPCR12c; test: [35S]GTPγS binding assay, membranes of CHO cells transfected with CEGPCR12c; format: biochemical, C. elegans
[3] = molecular target: T2, CEGPCR12h receptor (Caenorhabditis elegans, UniProt Q20275); test: [35S]GTPγS binding assay, CEGPCR12h expressed in CHO cells; format: biochemical, C. elegans
T2 sequence (Q20275 1-402): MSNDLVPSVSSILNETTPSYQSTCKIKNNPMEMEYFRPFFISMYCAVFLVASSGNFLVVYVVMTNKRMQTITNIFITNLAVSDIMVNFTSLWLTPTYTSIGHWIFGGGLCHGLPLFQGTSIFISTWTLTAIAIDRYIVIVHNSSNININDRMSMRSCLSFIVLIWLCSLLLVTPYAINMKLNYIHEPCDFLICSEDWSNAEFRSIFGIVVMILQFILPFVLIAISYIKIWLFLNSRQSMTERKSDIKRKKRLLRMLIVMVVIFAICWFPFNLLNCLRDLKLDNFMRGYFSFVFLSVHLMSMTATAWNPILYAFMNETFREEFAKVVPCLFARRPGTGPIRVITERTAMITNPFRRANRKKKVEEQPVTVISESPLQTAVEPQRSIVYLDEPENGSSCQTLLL
Method: Recombinant pCR3.1 clones encoding invertebrate GPCR-like receptors were transformed into wild-type CHO-K1 cells and functional expression was achieved using a temperature-shift incubation protocol. The CHO-K1 cells were cultured at 37° C. in a humidified atmosphere of 5% CO2 in air in DMEM medium supplemented with 10% heat-inactivated fetal bovine serum (i.e., FBS), 10 μg/ml gentamicin, and 0.1 mM nonessential amino acids to give complete DMEM medium. Additionally, for incubations at temperatures lower than 37° C., the medium was fortified with 10 mM HEPES (pH 7.4). Cells were transfected with recombinant pCR3.1 clones containing GPCR-like receptor DNAs, using LipofectAMINE PLUS™, essentially according to the manufacturer's instructions. […] In separate plastic tubes, PLUS (20 μl/plate; Life Technologies) was added to 0.75 ml/plate of recombinant plasmid DNA in OptiMEM (5 μg/plate; Gibco/BRL—Life Technologies), mixed and incubated at room temperature for 15 minutes. Separately, LipofectAMINE (30 μl/plate) was mixed with 0.75 ml OptiMEM and added to the pre-complexed DNA/PLUS mixture and incubated at room temperature for 15 minutes. The culture medium was then replaced with serum-free transfection medium (DMEM, 5 ml/plate). The DNA-PLUS-LipofectAMINE complex was then added to the plates (1.5 ml/plate) and mixed gently into the medium, followed by a 3 hour incubation at 37° C. in 5% CO2. At this time, the medium was supplemented with complete DMEM medium containing 20% FBS (6.5 ml/plate) and incubation was continued at 37° C. in 5% CO2. After a total of 24 hours at 37° C. in 5% CO2, the medium was replaced with complete DMEM medium fortified with 10 mM HEPES (10 ml/plate) and the cells were moved to an incubator maintained at 28-30° C. in a humidified atmosphere of 5% CO2 in air. The incubation continued for an additional 24 hours, typically at the lower temperature indicated above. A plasmid encoding Green Fluorescent Protein (i.e., GFP, 4 μg/plate) was used for transient GFP expression in CHO-K1 cells to estimate the transfection yields under the same conditions as used for GPCR-like receptor polynucleotides.
To assess expression, membranes were prepared from transfected CHO-K1 cells. Transfected cells were washed once with ice-cold Dulbecco's phosphate-buffered saline (i.e., PBS), 5 ml per 10 cm plate, and the cells were scraped into 5 ml of the same buffer. Cell suspensions from multiple plates were combined and centrifuged at 500×g for 10 minutes at 4° C. The cell pellet was reconstituted in ice-cold TEE (25 mM Tris, pH 7.4, 5 mM EGTA, 5 mM EDTA). Convenient aliquots were snap-frozen in liquid nitrogen and stored at −70° C. After thawing, the cells were homogenized and centrifuged at 500×g for 5 minutes at 4° C. to pellet nuclei and unbroken cells. Tile supernatant was centrifuged at 47,000×g for 30 minutes at 4° C. The membrane pellet was washed once with TEE, resuspended in 20 mM HEPES, pH 7.4, 100 mM NaCl, 10 mM MgCl2, 1 mM EDTA (assay buffer), distributed into aliquots of 0.5-1.0 ml, and frozen in liquid nitrogen. Membrane aliquots were stored at −70° C. Membrane protein concentration was determined using the BCA Protein Assay Reagent from Pierce (Rockford, Ill.), with bovine serum albumin (i.e., BSA) as a standard.
Aliquots of cell membranes prepared as described above and stored at −70° C. were thawed, homogenized, and diluted into buffer containing 20 mM HEPES, pH 7.4, 10 mM MgCl2, 1 mM EDTA, and 100 mM NaCl at a concentration of 10-50 μg/ml. Reaction mixtures were prepared in 96-well polypropylene plate, Nunc. Twenty microliters of a 10× putative modulator compound (including but not limited to potential peptide ligands) solution or a water control (20 μl), 18.2 µM GDP (0.11 ml, 10 μM final concentration), and a membrane preparation were mixed and placed on ice. The modulator/ligand-GDP-membrane mixtures were incubated for 20 minutes at room temperature on a shaking platform and then placed on ice.

[4] = molecular target: T1, CEGPCR4 receptor; test: Flp18 binding assay: [125I]YDVPGVLRFamide binding and competition on CEGPCR4/CHO membranes; design: species or system C. elegans; details: in words
Method: A peptide ligand screening assay that measures ligand binding to a suitable GPCR-like receptor according to the invention is exemplified using a modified C. elegans Flp18 peptide ligand.
Membranes for use in the assay are derived from cells stably transfected with a GPCR-like receptor expression construct. The transfected cells are grown in 10 cm dishes to subconfluence, rinsed once with 5 ml of ice-cold Ca^2+/Mg^2+—free PBS, and scraped into 5 ml of the same buffer. Cells are pelleted by centrifugation (500×g, 5 minutes), resuspended in 25 mM Tris, pH 7.5, 5 mM EDTA, 5 mM EDTA, pH 7.5 (TEE), and frozen in liquid nitrogen. After thawing, the cells are homogenized using a Dounce homogenizer (one ml TEE per plate of cells), and centrifuged at 1,000×g for 5 minutes to remove nuclei and unbroken cells.
The homogenate supernatant is centrifuged at 20,000×g for 20 minutes to isolate the membrane fraction, and the membrane pellet is washed once with TEE and resuspended in binding buffer (20 mM HEPES, pH 7.5, 150 mM NaCl, 10 mM MgCl2, 1 mM EDTA). […]
The peptide ligand screening assay is facilitated by use of 96-well plates Millipore Multiscreen® filtration plates (FB opaque 1.0 μM glass fiber type B, catalog number MAFBNOB50). […] The following day, the plate is counted in a Microbeta® scintillation counter.

[5] = molecular target: CEGPCR19.2 (Caenorhabditis elegans, UniProt H2KZY4); test: calcium mobilization assay (FLIPR), transiently transfected CHO cells, CEGPCR19.2; format: cell-based, C. elegans; details: Table 13; peptides at 10 μM
Method: Changes in intracellular calcium levels are another recognized indicator of […] receptor activity, and such assays can be employed to assay for modulators of GPCR-like receptor activity. For example, CHO cells stably transfected with a GPCR-like receptor expression construct are plated at a density of 4×10^4 cells/well in Packard black-walled 96-well plates specially designed to isolate fluorescent signals to individual wells. The cells are incubated for 60 minutes at 37° C. in modified Dulbecco's PBS (D-PBS), containing 36 mg/L pyruvate and 1 g/L glucose with the addition of 2.5 mM probenecid (Sigma Chemical Co.) and one of four calcium indicator dyes (Fluo3™ AM, Fluo4™ AM, Calcium Green™-1 AM, or Oregon Green™ 488 BAPTA-1 AM) at a concentration of 4 μM. Plates are washed once with modified D-PBS […] 1% fetal bovine serum and incubated for 10 minutes at 37° C. to remove residual dye from the cellular membrane. In addition, a series of washes with modified D-PBS is performed immediately prior to activation of the calcium response.
Calcium response is initiated by the addition of one or more candidate receptor agonist compounds, or a positive control such as a calcium ionophore A23187 (10 μM), or ATP (4 μM). Fluorescence is measured by Molecular Device's FLIPR with an argon laser, excitation at 488 nm. […] Basal fluorescence of cells was measured for 20 seconds prior to addition of agonist, ATP, or A23187, and was subtracted from the response signal. The calcium signal is measured for approximately 200 seconds, taking readings every two seconds. […]
This appears especially useful for the assessment of possible activation of orphan GPCRs (i.e., GPCRs having unknown functions and unknown signaling pathways). […] Because the GTPγS assay is known to poorly recognize GPCRs coupled to the Gq class of G-proteins, a Ca^+2 mobilization assay, based on a FLIPR readout, was used as well to evaluate putative Gq-couplcd orphan GPCRs transiently transfected into CHO cells. […] Without the temperature downshift, expression of functional receptor could not be detected. […]

[6] = molecular target: T3, CEGPCR4 (C. elegans); test: radioligand binding to CEGPCR4/CHO membranes
T3 construct: Expressed in CHO cells; also called CEGPCR4 receptor; CEGPCR4/CHO membranes
T3 chain: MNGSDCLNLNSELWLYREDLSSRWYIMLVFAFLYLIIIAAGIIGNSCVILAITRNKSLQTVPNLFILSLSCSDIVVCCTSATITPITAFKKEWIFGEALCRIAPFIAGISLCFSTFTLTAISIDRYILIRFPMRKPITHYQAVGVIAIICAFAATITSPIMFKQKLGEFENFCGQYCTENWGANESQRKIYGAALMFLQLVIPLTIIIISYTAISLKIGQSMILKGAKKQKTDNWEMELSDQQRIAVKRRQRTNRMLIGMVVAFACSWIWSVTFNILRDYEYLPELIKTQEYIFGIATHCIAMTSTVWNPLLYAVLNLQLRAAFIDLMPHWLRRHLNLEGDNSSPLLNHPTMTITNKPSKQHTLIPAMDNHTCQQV

[7] = molecular target: T4, CEGPCR7 (C. elegans), Q18534; test: cell-based or functional assay
T4 chain: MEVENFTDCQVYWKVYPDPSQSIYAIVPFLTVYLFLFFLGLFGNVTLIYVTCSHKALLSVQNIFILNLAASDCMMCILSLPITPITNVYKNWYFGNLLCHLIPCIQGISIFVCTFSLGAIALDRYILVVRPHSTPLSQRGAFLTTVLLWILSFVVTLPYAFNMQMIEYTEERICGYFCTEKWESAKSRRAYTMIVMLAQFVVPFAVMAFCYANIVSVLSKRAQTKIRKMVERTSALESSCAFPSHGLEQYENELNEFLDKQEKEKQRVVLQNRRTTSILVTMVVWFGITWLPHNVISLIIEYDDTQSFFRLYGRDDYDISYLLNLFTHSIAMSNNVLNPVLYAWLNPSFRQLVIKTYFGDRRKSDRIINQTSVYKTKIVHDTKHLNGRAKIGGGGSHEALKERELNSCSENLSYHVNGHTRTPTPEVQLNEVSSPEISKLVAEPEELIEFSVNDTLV

[8] = membranes from cells transfected and maintained at 37° C.
[9] = temperature shift to 28° C. 24 hours after transfection

CEGPCR19.2, sequence (H2KZY4 entry or part of it): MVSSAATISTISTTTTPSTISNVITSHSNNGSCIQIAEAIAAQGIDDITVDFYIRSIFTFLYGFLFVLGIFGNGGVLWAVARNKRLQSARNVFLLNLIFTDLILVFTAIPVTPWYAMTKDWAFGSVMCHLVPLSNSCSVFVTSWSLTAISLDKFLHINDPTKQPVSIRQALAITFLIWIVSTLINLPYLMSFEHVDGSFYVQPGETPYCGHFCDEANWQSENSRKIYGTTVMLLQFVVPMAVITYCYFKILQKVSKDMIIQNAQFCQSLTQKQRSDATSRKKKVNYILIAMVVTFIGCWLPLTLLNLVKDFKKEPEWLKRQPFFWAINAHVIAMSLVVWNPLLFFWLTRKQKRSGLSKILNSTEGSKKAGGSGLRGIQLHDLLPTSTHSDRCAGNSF

## PDVDHVFLRF-NH2 [PDVDHVFLRF-NH2]
[1]; [8]
  receptor activation by matched ligand: not detectably activated
[1]; [9]
  ligand-induced [35S]GTPγS binding: significant stimulation
[2]; [8]
  receptor activation by matched ligand: not detectably activated
[2]; [9]
  ligand-induced [35S]GTPγS binding: significant stimulation
[3]; EC50
  EC50: 330 nM
[3]; EC50 range, Table 11, one range for the group, results apply to all CEGPCR12 isoforms
  EC50: 300 to 500 nM

## [^125I-Y]DVPGVLRF-NH2 ([Tyr(125I)]DVPGVLRF-NH2)
[4]
  Kd, binding to the CEGPCR4/CHO membranes: subnanomolar range

## KPNFIRF-NH2
[5]
  activity at single concentration: peptides active

## LQPNFLRF-NH2
[5]
  activity at single concentration: peptides active

B1: 3-Iodo-Y-DVPGVLRF-NH2 (peptide)
peptide: [Tyr(3-I)]DVPGVLRF-NH2
modifications: N-terminus assumed
SMILES: CC(C)C[C@H](NC(=O)[C@@H](NC(=O)CNC(=O)[C@@H]1CCCN1C(=O)[C@@H](NC(=O)[C@H](CC(=O)O)NC(=O)[C@@H](N)Cc1ccc(O)c(I)c1)C(C)C)C(C)C)C(=O)N[C@@H](CCCNC(=N)N)C(=O)N[C@@H](Cc1ccccc1)C(N)=O
notes: Synthetic flp18 analog; the radioiodinated form is treated as the same molecule
[6]
  Kd: < 1 nM

## GLGPRPLRF-NH2 […-NH2 (AF9)]
[7]
  AF9-induced [35S]GTPγS binding, constant 37° C. (third experiment): 1.4 fold
